The values below come from US20240002463A1, “CHEMOGENETIC RECEPTORS AND METHODS OF MAKING AND USING” (Howard Hughes Medical Institute, priority 2022, published 2024).

Data set [1] addresses T1, α7-5HT3 (Homo sapiens, UniProt P36544, M226I/T225I).
T1 construct: expressed in transfected cells; host or cells: HEK-293 (transient transfection)
Put plainly: agonist potency/activity at unmodified α7-5HT3 chimeric channel. Type of data set: cell-based. The following applies: agonist activity at unmodified α7-5HT3; read-out: EC50α7-5HT3.

For a further data set, the target named is T2, α7-GlyR (Homo sapiens, UniProt P36544).
T2 construct: expressed in transfected cells; host or cells: HEK-293 (transient transfection)
T2 sequence (P36544 with tags, fused parts or gaps): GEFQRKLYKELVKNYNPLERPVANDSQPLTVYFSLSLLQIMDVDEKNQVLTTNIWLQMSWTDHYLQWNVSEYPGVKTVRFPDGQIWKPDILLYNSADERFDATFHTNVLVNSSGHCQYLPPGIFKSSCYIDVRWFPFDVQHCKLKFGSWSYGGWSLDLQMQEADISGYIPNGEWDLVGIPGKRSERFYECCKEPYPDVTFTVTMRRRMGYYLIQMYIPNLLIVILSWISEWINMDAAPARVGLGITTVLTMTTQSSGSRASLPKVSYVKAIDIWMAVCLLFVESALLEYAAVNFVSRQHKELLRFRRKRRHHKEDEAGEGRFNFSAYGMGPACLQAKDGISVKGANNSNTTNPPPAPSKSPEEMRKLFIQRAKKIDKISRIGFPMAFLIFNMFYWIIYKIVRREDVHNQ
Put plainly: agonist potency/activity at unmodified α7-GlyR chimeric channel. Type of data set: cell-based.

Data set [2] concerns the target T3, α7-5HT3 (Homo sapiens, UniProt P36544).
T3 construct: expressed in transfected cells; host or cells: HEK-293 (transient transfection)
Put plainly: agonist potency/activity at unmodified α7-5HT3 chimeric channel. In kind it is cell-based.

The conditions of data set [3]: cited from earlier work.
Another data set relates to dopamine release. The following applies: cited from earlier work.
The conditions of data set [4]: rat; estimated; cited from earlier work.
The subject of data set [5] is hippocampal neurons expressing Gpr40. Briefly: patch clamp electrophysiology of hippocampal neurons expressing Gpr40. In kind it is cell-based, rat. The note with it: 0.2 μM; FIG. 12A. How it is done: For engineered neuromodulation of neurons by fatty acids, a fatty acid […] (Gpr40) was expressed in hippocampal neurons. Neuron firing was increased in response to a fatty acid, palmitate (20 μM), as well as a synthetic Gpr40 agonist, GW9508 (0.2 μM) (FIG. 12A, 12B). For testing, embryonic rat hippocampal neurons are transfected by electroporation with a plasmid expressing GPR40 and an mCherry fluorescent protein. Then cells are plated on poly-D-lysine coated 13 mm dia #1 glass coverslips in the wells of a 24 well plates at 50,000 cells/well. Each well receives 60 μL of cell suspension plus 60 μL of NbActiv4 medium (BrainBits) and are incubated at 37 C in 5% CO2 for 4 hours for initial cell attachment. NbActiv4 media (1 mL) is then added to each well and cultures kept for the duration of the experiment. Weekly medium changes are done by replacing 0.5 mL medium from each well with fresh NbActiv4. Fluorescent cells are recorded by patch clamp electrophysiology while palmitate or GW9508 are perfused over the cells intermittently in a saline extracellular solution.

SMILES strings stand for the structures. Where two headings read alike, the source gives them in different places.

T3 sequence (P36544 with tags, fused parts or gaps T225I/M226I): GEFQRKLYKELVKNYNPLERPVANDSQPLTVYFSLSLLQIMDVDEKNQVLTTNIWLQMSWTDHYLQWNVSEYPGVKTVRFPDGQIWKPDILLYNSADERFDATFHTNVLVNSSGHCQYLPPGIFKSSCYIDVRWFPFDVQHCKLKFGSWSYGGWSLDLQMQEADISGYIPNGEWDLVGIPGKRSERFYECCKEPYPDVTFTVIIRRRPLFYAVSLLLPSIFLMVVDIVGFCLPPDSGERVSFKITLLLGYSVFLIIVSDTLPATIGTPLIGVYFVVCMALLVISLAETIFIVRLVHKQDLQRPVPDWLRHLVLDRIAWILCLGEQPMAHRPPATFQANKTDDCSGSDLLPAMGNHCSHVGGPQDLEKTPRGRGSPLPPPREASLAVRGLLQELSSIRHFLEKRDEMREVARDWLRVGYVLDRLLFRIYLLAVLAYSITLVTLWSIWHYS
T1 sequence (P36544 with tags, fused parts or gaps T225I/M226I): as above

On to `C[N+](C)(C)CCO` [Choline], for which the figures for the EC50 at α7-5HT3 [1] and at α7-GlyR were 37 µM and 103 µM, respectively. In the case of `CN[C@@H](C)Cc1ccccc1` [methamphetamine, Methamphetamine], the “agonist activity at unmodified chimeric receptor α7-5HT3” value on α7-5HT3 [2] is given as “do not show agonist activity”. For the same compound, the “blood concentration during self-administration” value in data set [3] (in females) was 900 nM; in data set [3] (in males), 700 nM.

Regarding `CNC(C)C(=O)c1ccc2c(c1)OCO2` (centres unmarked) [methylone, Methylone], in the data set with dopamine release (read-out: EC50 for DA release), the EC50 is about 0.4 µM. As for `CCCC(C(=O)c1ccc2c(c1)OCO2)N1CCCC1` (centres unmarked) [MDPV, methylenedioxypyrvalerone], the EC50 in the data set on dopamine release (read-out: EC50 for DA release) was 0.1 µM. `COC(=O)[C@H]1[C@@H](OC(=O)c2ccccc2)C[C@@H]2CC[C@H]1N2C` [Cocaine]: the “brain concentration maintained by self-administration” value in data set [4] is 10000 to 20000 nM. Turning to `CN1CCCC1c1cccnc1` (centres unmarked) [Nicotine], the EC50 in the data set on dopamine release (nucleus accumbens, read-out: EC50 dopamine release in the nucleus accumbens) is 0.48 µM. For `O=C(O)CCc1ccc(NCc2cccc(Oc3ccccc3)c2)cc1` [GW9508], the neuron firing entry in data set [5] is on record as “increased”. As to `COC(=O)C(c1ccccc1)C1CCCCN1` (centres unmarked) [methylphenidate, Methylphenidate], in the data set on dopamine release (striatum, read-out: EC50 for release of DA in the striatum), the EC50 is 10 µM. Turning to `CC(N)Cc1ccccc1` (centres unmarked) [amphetamine, Amphetamine], in the data set with dopamine release (read-out: EC50 for DA release), the EC50 was 0.5 µM.

Regarding `CNC(C)C(=O)c1ccc(C)cc1` (centres unmarked) [mephedrone, Mephedrone], the EC50 with dopamine release (read-out: EC50 for DA release) is about 0.3 µM.

In the case of `CNC(C)Cc1ccc2c(c1)OCO2` (centres unmarked) [MDMA, 3,4-Methylenedioxy-methamphetamine], the “agonist activity at unmodified chimeric receptor α7-5HT3” value on α7-5HT3 [2] was “do not show agonist activity”.
